In data set [1] the test system is PC3 cells. Briefly: MTT assay, cancer cell metabolic activity and proliferation. The data set is classed as cell-based. Particulars: Homo sapiens, PC-3, 24 h treatment, read-out: IC50, anti-proliferative effect (MTT). The procedure:
A MTT (3-[4,5-dimethylthiazol-2-yl]-2,5 diphenyl tetrazolium bromide) assay was used to assess cancer cell metabolic activity and proliferation.
The protocol was as follows: • A total of 4000 PC3 cells were seeded per well in 96-well plates. Following attachment, cells were treated with vehicle control DMSO, IPA3, Compound 1, Compound 3, and Compound 4 at various doses as indicated for 24 h. Growth inhibition was determined by MTT [3-(4,5-dimethylthiazol-2-yl)-2,5-diphenyltetrazolium bromide] (Sigma-Aldrich, St. Louis, MO, USA; catalog No. M2128) assay. The MTT solution was added to the media at a final concentration of 0.8 mg/mL and cells were incubated at 37° C. for 2 hours. After aspiration of media, formazan crystals were dissolved in 100 μl of DMSO. Optical densities were measured at 570 nm using a SynergyHT plate reader (BioTek. Winooski. […]. USA). To calculate IC50 values. GraphPad Prism Software was used (GraphPad Software. San Diego, CA. USA).

In data set [2] the test system is PC3 cells. Put plainly: Annexin V-PE / 7-AAD apoptosis and necrosis assay (flow cytometry). Type of data set: cell-based, human. Particulars: 24 hours treatment. The procedure: The anti-cancer efficacy of a drug was also evaluated based on the ability of the compound to induce apoptosis and/necrosis in cancer cells. […] Compound 1. Compound 3, and Compound 4 were tested based on their ability to induce apoptosis and necrosis in vitro. The protocol was as follows:
The apoptotic death of cells was determined using an Annexin V-PE apoptosis detection kit (Cat #559763; BD Biosciences. CA. USA) according to the manufacturer's protocol. In brief. PC3 cells were treated with DMSO (0.3%). IPA3. Compound 1. Compound 3 and Compound 4 for 24 hours. At the end of treatment, cells were trypsinized, washed with PBS and stained with annexin V-Phycoerythrin (PE) and 7-Amino-Actinomycin (7-AAD). The stained cells were analyzed using a flow cytometer within 1 h of staining.

The test system of data set [3] is PC3 cells. Briefly: Cell-monolayer scratch assay (cell motility). Particulars: 36 hours, half of the IC50 doses from the MTT assay. The data set is classed as cell-based, human. The procedure:
The motility of cancer cells is an index of their ability to come out of the primary tumor, invade, and metastasize to distant tissues. MetasTx tested Compound 1. Compound 3, and Compound 4 for their inhibitory effect on human metastatic prostate cancer (PC3) cells by using a ‘cell-monolayer scratch assay”, a reliable technique to determine the rate of cancer cell motility.
A total of 0.5×10^5 PC3 cells were plated per well on 6 well plates to obtain 95% confluent monolayers of cells after overnight incubation. The following day, a linear scratch (wound) was made using a 200 μl pipette tip and the detached cells were washed away by sterile phosphate-buffered saline (PBS). Images of scratches were captured from three different locations under a phase-contrast microscope at 4× magnification. The monolayers were treated with the desired doses of vehicle or drugs (half of the IC50 doses determined from the MTT assay). The cells were allowed to migrate for 36 hours, and images of the wound were re-captured from the same locations. The percentage of healed areas was determined using the NIH ImageJ software by measuring the distance of imported images in Microsoft Office PowerPoint (Microsoft Office Inc.) at the same magnification.

The next data set concerns the target PAK6 (Homo sapiens, UniProt Q9NQU5). Particulars: group II PAK; cited from earlier work.
The next data set has as its target PAK5 (Homo sapiens, UniProt Q9P286). The settings on record: group II PAK; cited from earlier work.
In another data set the target is PAK4 (Homo sapiens, UniProt O96013). The settings on record: group II PAK; cited from earlier work.
Chain of PAK4 (O96013 whole entry, species assumed): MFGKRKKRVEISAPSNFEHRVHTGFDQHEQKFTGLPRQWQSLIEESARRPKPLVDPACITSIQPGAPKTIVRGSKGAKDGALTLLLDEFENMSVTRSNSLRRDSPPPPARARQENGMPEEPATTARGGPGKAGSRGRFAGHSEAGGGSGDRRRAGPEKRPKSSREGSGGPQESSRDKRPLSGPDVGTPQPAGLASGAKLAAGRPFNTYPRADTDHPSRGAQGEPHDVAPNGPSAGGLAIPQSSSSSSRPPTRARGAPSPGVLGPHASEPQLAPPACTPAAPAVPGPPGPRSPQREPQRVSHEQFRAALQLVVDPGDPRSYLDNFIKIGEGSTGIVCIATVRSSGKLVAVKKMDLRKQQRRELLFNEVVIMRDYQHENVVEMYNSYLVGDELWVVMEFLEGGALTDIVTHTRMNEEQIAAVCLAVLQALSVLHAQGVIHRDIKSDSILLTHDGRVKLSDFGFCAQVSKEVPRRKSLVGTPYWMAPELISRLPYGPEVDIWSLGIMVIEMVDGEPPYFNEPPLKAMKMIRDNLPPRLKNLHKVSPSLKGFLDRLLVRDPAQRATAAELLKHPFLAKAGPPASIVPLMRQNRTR
The conditions of data set [4]: cited from earlier work.

The source of these data is patent publication US20250144046A1, “PHARMACEUTICAL COMPOSITIONS AND METHODS OF ADMINISTRATION” (METASTX, LLC, priority 2022, published 2025).

Chain of PAK6 (Q9NQU5 whole entry, species assumed): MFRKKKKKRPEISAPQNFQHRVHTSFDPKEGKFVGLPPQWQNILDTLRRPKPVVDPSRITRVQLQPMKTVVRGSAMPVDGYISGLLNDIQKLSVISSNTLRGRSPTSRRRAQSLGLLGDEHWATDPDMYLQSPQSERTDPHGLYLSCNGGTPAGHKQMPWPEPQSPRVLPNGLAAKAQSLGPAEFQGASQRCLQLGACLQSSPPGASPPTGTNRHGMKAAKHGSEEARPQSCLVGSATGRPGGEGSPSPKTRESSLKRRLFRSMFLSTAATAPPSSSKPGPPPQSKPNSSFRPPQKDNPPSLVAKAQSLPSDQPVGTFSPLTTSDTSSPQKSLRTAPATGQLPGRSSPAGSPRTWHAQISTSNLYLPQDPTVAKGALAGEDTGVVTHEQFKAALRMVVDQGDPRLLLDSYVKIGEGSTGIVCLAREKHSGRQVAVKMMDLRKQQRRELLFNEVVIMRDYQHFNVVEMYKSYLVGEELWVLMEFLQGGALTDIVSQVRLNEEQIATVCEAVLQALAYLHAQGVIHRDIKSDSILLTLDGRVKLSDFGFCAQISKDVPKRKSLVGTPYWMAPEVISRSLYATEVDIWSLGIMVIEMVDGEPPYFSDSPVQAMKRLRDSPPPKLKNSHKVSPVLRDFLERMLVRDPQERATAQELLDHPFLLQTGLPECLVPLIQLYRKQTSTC
Chain of PAK5 (Q9P286 whole entry): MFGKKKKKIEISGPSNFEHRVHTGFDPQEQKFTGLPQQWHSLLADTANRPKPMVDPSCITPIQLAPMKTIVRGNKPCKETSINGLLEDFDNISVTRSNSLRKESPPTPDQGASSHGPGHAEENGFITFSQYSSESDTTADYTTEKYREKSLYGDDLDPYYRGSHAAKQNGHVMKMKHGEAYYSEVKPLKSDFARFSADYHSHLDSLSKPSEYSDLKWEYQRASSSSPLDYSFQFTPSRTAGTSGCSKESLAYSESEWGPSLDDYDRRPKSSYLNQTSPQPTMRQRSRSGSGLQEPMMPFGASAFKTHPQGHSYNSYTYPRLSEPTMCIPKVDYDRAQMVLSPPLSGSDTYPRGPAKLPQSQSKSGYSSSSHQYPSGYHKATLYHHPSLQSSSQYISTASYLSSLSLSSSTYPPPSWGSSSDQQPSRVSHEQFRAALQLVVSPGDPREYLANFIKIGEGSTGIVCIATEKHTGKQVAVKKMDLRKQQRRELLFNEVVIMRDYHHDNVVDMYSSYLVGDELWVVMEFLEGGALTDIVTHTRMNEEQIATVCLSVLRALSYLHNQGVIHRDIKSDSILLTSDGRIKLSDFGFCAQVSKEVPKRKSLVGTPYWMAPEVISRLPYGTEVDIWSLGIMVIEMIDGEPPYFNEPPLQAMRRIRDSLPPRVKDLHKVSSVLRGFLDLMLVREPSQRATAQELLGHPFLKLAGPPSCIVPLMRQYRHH

`Oc1ccc2ccccc2c1CSc1c(O)ccc2ccccc12` [Compound 1]: the IC50 with PC3 cells [1] stood at 50.2 µM. For the same compound, the “induction of apoptosis and necrosis compared to vehicle (DMSO)-treated control” value with PC3 cells [2] was “robust induction of apoptosis and necrosis”. The “inhibition of PC3 cell motility compared to vehicle (DMSO)-treated control” value in the data set on PC3 cells [3] is given as “did not show significant inhibition”.
With `Oc1ccc2ccccc2c1CSCc1c(O)ccc2ccccc12` [Compound 3], the concentration for half-maximal inhibition (IC50) with PC3 cells [1] is 22.2 µM. Besides, in the data set on PC3 cells [2], the “induction of apoptosis and necrosis compared to vehicle (DMSO)-treated control” value was “robust induction of apoptosis and necrosis”; the “total cell death compared to IPA-3” value is recorded as “superior efficacy in inducing total cell death”. Also, the “inhibition of PC3 cell motility compared to vehicle (DMSO)-treated control” value with PC3 cells [3] is recorded as “significant anti-cancer cell motility effects”.
For `Oc1ccc2ccccc2c1CCCc1c(O)ccc2ccccc12` [Compound 4], the IC50 with PC3 cells [1] stood at 15.5 µM. In the data set with PC3 cells [2], the “induction of apoptosis and necrosis compared to vehicle (DMSO)-treated control” value is “robust induction of apoptosis and necrosis”; the “total cell death compared to IPA-3” value is “superior efficacy in inducing total cell death”. Further, in the data set with PC3 cells [3], the “inhibition of PC3 cell motility compared to vehicle (DMSO)-treated control” value is reported as “significant anti-cancer cell motility effects”.
Consider `Oc1ccc2ccccc2c1SSc1c(O)ccc2ccccc12` [IPA-3, 2,2″-dihydroxy-1, 1′-dinaphthyldisulfide], for which the “inhibition of PAK6” value on PAK6 was “does not inhibit”. The “inhibition of PAK5” value at PAK5 is “does not inhibit”. Moreover, the IC50 in the data set with PC3 cells [1] was determined as 28 µM. The “inhibition of PAK4” value at PAK4 is given as “does not inhibit”. Moreover, the stability in plasma entry in data set [4] is reported as “not very stable”. The “induction of apoptosis and necrosis compared to vehicle (DMSO)-treated control” value in the data set with PC3 cells [2] was “robust induction of apoptosis and necrosis”. In the data set with PC3 cells [3], the “inhibition of PC3 cell motility compared to vehicle (DMSO)-treated control” value was “did not show significant inhibition”.
